Values of other authors in patent US20200253960A1, “ANTIBIOTIC FORMULATIONS FOR TREATING OF CAVITY INFECTIONS” (ARADIGM CORPORATION, priority 2019, published 2020).

Tested on: Pseudomonas aeruginosa
Conditions: cystic fibrosis

CC[C@H]1OC(=O)[C@H](C)[C@@H](O[C@H]2C[C@@](C)(OC)[C@@H](O)[C@H](C)O2)[C@H](C)[C@@H](O[C@@H]2O[C@H](C)C[C@H](N(C)C)[C@H]2O)[C@](C)(O)C[C@@H](C)CN(C)[C@H](C)[C@@H](O)[C@]1(C)O [azithromycin]
interaction with inhaled tobramycin: antagonistic against inhaled tobramycin
